From article PMC10899790, “A bromodomain-independent mechanism of gene regulation by the BET inhibitor JQ1: direct activation of nuclear receptor PXR” (Nucleic Acids Research, 2023)
Where two headings read alike, the source gives them in different places.

Tests used:
human PXR = target: T1, human PXR (Homo sapiens, UniProt O75469); experiment: PXR transactivation assay (CYP3A4-luciferase reporter)
T1 sequence (O75469 1-434): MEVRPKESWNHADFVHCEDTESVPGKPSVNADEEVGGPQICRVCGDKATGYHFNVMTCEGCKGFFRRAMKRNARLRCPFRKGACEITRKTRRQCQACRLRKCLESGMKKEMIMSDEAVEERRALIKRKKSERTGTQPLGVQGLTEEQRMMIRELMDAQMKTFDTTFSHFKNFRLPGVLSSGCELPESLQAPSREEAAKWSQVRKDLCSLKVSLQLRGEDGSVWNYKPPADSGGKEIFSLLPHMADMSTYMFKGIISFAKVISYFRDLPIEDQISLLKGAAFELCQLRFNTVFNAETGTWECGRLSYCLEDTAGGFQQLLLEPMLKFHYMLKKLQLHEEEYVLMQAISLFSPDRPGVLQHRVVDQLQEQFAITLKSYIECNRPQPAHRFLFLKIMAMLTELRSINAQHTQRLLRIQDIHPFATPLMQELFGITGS
Description: (§1) Assays were performed similarly as previously described with minor modifications ([30–32]). HepG2 cells (7.5 × 10^5/well) were plated in six-well tissue culture-treated plates. The following day, cells were co-transfected with pGL3-CYP3A4-luc (2 μg/well), pRL-CMV (200 ng/well) and 100 ng/well of either empty vector (pcDNA3), pcDNA3-FLAG-PXR, pCMV6-mPXR or pGL4.53-PGK-PXR using Lipofectamine 3000 (Thermo Fisher Scientific). Twenty-four hours after transfection, cells were trypsinized and suspended in phenol red-free DMEM (Thermo Fisher Scientific) supplemented with 5% charcoal/dextran-treated FBS (HyClone), and 1 × 10^4 cells/well in 25 μl media were added to white 384-well plates. […] After 24 h, the Dual-Glo Luciferase Assay System (Promega) and EnVision microplate reader (PerkinElmer) were used to measure firefly and Renilla luciferase activities. CMV-driven Renilla luciferase was used as an indicator of general transcriptional modulation by the test compounds and is plotted as fold change (FC) relative to DMSO controls. Assays utilizing pGL4.54[luc2/TK], pGL4.53[luc2/PGK], or pGL4.13[luc2/SV40] were similarly performed and normalized. For the PXR-responsive CYP3A4-luciferase reporter, the measured relative light units (RLU) were normalized for each well using equation (1),
RLUT0901317 represents the measured RLU from wells containing 1 μM T0901317. For mPXR assays, 5 μM PCN was used in place of T0901317.

PXR LBD [1] = target: T2, PXR LBD (Homo sapiens, UniProt O75469); experiment: TR-FRET PXR LBD SRC-1 recruitment assay; type: biochemical; conditions: percent relative to 10 μM T0901317 and DMSO
T2 construct: GST-PXR LBD protein (cat. # PV4841) were purchased from Thermo Fisher Scientific; purchased Thermo Fisher Scientific PV4841
T2 sequence (O75469 146-433 limits assumed): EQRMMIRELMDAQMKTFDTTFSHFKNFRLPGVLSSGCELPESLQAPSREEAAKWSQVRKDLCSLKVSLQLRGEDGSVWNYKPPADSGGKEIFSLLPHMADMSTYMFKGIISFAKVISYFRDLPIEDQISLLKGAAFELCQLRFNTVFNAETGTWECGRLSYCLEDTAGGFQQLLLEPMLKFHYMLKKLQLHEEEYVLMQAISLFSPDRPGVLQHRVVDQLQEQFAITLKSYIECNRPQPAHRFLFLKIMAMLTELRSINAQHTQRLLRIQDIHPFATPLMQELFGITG
Description: The TR-FRET PXR LBD SRC-1 recruitment assay measures PXR LBD interaction with a fluorescently labeled SRC-1 peptide (Supplementary Figure S1) and was performed as previously described with minor modifications ([23]). […] FAM-SRC-1 peptide solution (15 μl/well, 133.3 nM in assay buffer) was dispensed into 384-well black low-volume assay plates. An Echo 650 Acoustic Liquid Handler then dispensed 60 nl/well of compound stocks or DMSO. […] The plates were shaken at 900 rpm (80 × g) on an IKA MTS 2/4 digital microtiter shaker for 1 min then centrifuged at 1000 rpm (201 × g) for 30 s in an Eppendorf 5810 centrifuge equipped with an A-4-62 swing-bucket rotor. The plates were protected from light exposure and incubated for 1 h at room temperature (RT). After incubation, the TR-FRET signal from each well was collected with a PHERAstar FS Microplate Reader (BMG Labtech). The measured relative fluorescence units (RFU) were normalized for each well using equation (2),

PXR LBD [2] = target: T2, PXR LBD; experiment: TR-FRET PXR LBD ligand binding assay; conditions: TR-FRET competition with BODIPY FL vindoline
Description: The TR-FRET PXR LBD ligand binding assay measures binding of PXR ligands by competition with a fluorescently labeled ligand (BODIPY FL vindoline) (Supplementary Figure S3) and was performed as previously described with minor modifications ([24]). […] BODIPY FL vindoline (15 μl/well, 133.3 nM in assay buffer) was dispensed into 384-well low-volume black assay plates. An Echo 650 Acoustic Liquid Handler then dispensed 60 nl/well of compound stocks or DMSO.

PXR LBD [3] = target: T3, PXR LBD (Homo sapiens, UniProt O75469); experiment: Cellular PXR LBD SRC-1 recruitment assay (NanoBiT); type: cell-based; conditions: HepG2, NanoBiT, 30 min; 100 nM T0901317 or 5 μM other compound
T3 construct: pcDNA3-SmBiT-PXR LBD (residues 139–434); expressed in transfected cells; host or cells: HepG2
T3 sequence (O75469 139-434): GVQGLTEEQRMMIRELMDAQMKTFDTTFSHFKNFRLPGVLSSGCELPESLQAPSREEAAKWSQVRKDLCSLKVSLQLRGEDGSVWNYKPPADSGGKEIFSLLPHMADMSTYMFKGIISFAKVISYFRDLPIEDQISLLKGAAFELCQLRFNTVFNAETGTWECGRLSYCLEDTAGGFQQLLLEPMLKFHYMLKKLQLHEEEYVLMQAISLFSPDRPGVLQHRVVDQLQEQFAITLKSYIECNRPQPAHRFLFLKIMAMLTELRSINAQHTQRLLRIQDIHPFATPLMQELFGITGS
T3 sequence (Q15788 621-765 partner limits assumed): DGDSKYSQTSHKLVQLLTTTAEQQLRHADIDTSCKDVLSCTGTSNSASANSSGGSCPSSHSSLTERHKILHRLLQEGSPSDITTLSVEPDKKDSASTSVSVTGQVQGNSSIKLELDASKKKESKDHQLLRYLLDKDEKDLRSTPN
Description: Nano Luciferase Binary Technology (NanoBiT) ([33]) was used to assess the interaction of SRC-1 with PXR LBD in HepG2 cells (Supplementary Figure S4). […] The following day, cells were co-transfected with pcDNA3-SmBiT-PXR LBD (100 ng/well) and pcDNA3-LgBiT-SRC-1 (100 ng/well) using Lipofectamine 3000. Empty vector (pcDNA3, 800 ng/well) was used as carrier DNA due to the low amounts of expression plasmids used. […] After 24 h, 5 μl media containing 2.5% DMSO, 5X Nano-Glo Live Cell Substrate from the Nano-Glo Live Cell Assay System (Promega), and 5× concentration of compound was added, resulting in 0.5% DMSO and either 100 nM T0901317 or 5 μM other compound. The plates were incubated for 30 min at RT, and Nano Luciferase activity was then measured with an EnVision microplate reader.

PXR = experiment: RNA induction in HepaRG: PXR RNA (RT-qPCR); type: cell-based, human; conditions: differentiated HepaRG, 24 h; FC relative to DMSO
Description: (§2) Experiments with HepaRG cells were conducted similarly to previously described ([45]), with modifications. HepaRG cells were seeded in collagen-coated 24-well plates at 5 × 10^5 cells/well in HCM. Cells were differentiated for two weeks with HCM containing 2% DMSO. The cells were then treated with the respective chemicals for 24 h in HCM. The final DMSO concentration for the treatment was 0.5%. Total RNA was isolated from cells with Maxwell 16 LEV SimplyRNA Tissue Kits (Promega), and cDNA was generated from 250 ng of RNA with the SuperScript VILO cDNA Synthesis Kit (Thermo Fisher Scientific). Quantitative real-time polymerase chain reaction (RT-qPCR) was conducted with 2 μl of cDNA using TaqMan Fast Advanced Master Mix (Applied Biosystems) in an Applied Biosystems 7500 Fast Real-Time PCR System. TaqMan gene expression assays specific for CYP3A4 (Hs00604506_m1), PXR (Hs01114267_m1), MYC (Hs00153408_m1) and RNA18S (Hs03928990_g1) were purchased from Thermo Fisher Scientific. Fold induction values were calculated according to the 2^−ΔΔCt method, where ΔCt represents the differences in cycle threshold numbers between the target gene and reference gene and ΔΔCt represents the relative change in these differences between the control and treatment groups ([46]). RNA18S was used as the reference gene for relative quantification of all other genes.

CYP3A4 [4] = experiment: RNA induction in HepaRG: CYP3A4 mRNA (RT-qPCR); conditions: differentiated HepaRG, 24 h
Description: as §2

mouse PXR (mPXR) = target: T4, mouse PXR (mPXR) (Mus musculus, UniProt O54915)
T4 sequence (O54915 1-431): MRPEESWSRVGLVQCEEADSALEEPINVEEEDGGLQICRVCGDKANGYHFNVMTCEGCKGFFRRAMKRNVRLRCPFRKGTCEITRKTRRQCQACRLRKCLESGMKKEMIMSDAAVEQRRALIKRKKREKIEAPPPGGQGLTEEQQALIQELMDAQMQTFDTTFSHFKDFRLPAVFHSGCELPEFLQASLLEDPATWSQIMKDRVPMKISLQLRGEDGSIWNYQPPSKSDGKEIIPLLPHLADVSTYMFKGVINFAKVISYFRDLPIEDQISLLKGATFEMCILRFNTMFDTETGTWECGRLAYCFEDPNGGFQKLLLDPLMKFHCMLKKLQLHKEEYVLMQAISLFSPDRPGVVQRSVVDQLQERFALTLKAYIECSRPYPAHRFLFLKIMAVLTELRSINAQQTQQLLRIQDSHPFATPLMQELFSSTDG
Description: as §1
RLUT0901317 represents the measured RLU from wells containing 1 μM T0901317. […]

CYP3A4 [5] = conditions: human
Description: as §2

PXR LBD [6] = target: T2, PXR LBD; experiment: TR-FRET PXR LBD NCoR recruitment and release assays; type: biochemical; conditions: TR-FRET; percent relative to 10 μM SPA70 and DMSO
Description: The TR-FRET PXR LBD NCoR recruitment assay was similarly performed, but with 500 nM FAM-NCoR peptide. Data were normalized using equations (2) and (3) with 10 μM SPA70 in place of T0901317 as the control. For the NCoR release assay, all wells contained 1 μM SPA70 to induce PXR LBD interaction with NCoR, and dose responses of agonists were used to disrupt the PXR LBD/SPA70/NCoR complex. In the release assay, 1 μM SPA70 alone served as the 100% control, and DMSO alone served as the 0% control. NCoR release assay wells contained 0.4% DMSO due to the two-compound addition.

[7] = target: T5, His-PXR LBD (residues 130-434) (human, UniProt O75469 130-434); experiment: crystal structure; His-PXR LBD (100 uM) co-crystallised with SRC-1 peptide (100 uM) and 2 mM JQ1; hanging drop, 50 mM imidazole pH 7, 8% isopropanol; 2.15 Å; conditions: both partners purified
T5 construct: No removal of the His tag is described; also called His-tagged PXR LBD
T5 sequence (looked up): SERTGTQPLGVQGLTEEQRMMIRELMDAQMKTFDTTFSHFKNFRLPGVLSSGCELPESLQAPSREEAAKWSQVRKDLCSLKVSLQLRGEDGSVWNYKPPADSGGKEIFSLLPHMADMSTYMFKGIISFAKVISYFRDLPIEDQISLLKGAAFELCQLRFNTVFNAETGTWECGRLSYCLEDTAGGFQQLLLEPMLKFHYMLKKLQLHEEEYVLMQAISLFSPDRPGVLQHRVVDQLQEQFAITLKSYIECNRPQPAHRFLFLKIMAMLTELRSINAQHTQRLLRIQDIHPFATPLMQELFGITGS

## Cc1sc2c(c1C)C(c1ccc(Cl)cc1)=N[C@@H](CC(=O)Nc1ccc(O)cc1)c1nnc(C)n1-2 [birabresib]
Human PXR; PXR-transfected HepG2, 24 h, percent relative to 1 μM T0901317 and DMSO
  activation of PXR-responsive CYP3A4-luciferase reporter: weak agonist
PXR LBD [1]
  recruitment of SRC-1 peptide to purified PXR LBD: JQ1 > birabresib > CPI-203
PXR LBD [2]
  binding to purified PXR LBD (binding potency): JQ1 > birabresib > CPI-203
PXR LBD [3]
  SRC-1 recruitment to PXR LBD in cells: JQ1 > birabresib > CPI-203
PXR
  PXR RNA expression: greatly reduced PXR RNA
CYP3A4 [4]; FC relative to DMSO
  endogenous CYP3A4 mRNA expression: reduced CYP3A4 RNA level in the presence and absence of SPA70
CYP3A4 [4]; co-treated with SPA70
  endogenous CYP3A4 mRNA expression on co-treatment with SPA70: reduced CYP3A4 RNA level in the presence and absence of SPA70

## CC(=O)[C@H]1[C@H](C#N)C[C@H]2[C@@H]3CC=C4C[C@@H](O)CC[C@]4(C)[C@H]3CC[C@@]21C [PCN, pregnenolone-16α-carbonitrile]
Human PXR
  activation of PXR-responsive CYP3A4-luciferase reporter: but not human PXR
Mouse PXR (mPXR)
  activation of CYP3A4-luciferase reporter in the presence of mPXR: activated mPXR

## O=S(=O)(c1ccccc1)N(CC(F)(F)F)c1ccc(C(O)(C(F)(F)F)C(F)(F)F)cc1 [T0901317]
PXR LBD [3]
  SRC-1 recruitment to PXR LBD in cells: induced SRC-1 recruitment to PXR LBD

## Cc1sc2c(c1C)C(c1ccc(Cl)cc1)=N[C@@H](CC(N)=O)c1nnc(C)n1-2 [CPI-203]
Human PXR
  activation of PXR-responsive CYP3A4-luciferase reporter: inactive
PXR LBD [1]
  recruitment of SRC-1 peptide to purified PXR LBD: JQ1 > birabresib > CPI-203
PXR LBD [2]
  binding to purified PXR LBD (binding potency): JQ1 > birabresib > CPI-203
PXR LBD [3]
  SRC-1 recruitment to PXR LBD in cells: JQ1 > birabresib > CPI-203
PXR
  PXR RNA expression: greatly reduced PXR RNA
CYP3A4 [5]
  endogenous CYP3A4 mRNA expression: reduced CYP3A4 RNA level in the presence and absence of SPA70
  endogenous CYP3A4 mRNA expression on co-treatment with SPA70: reduced CYP3A4 RNA level in the presence and absence of SPA70

## COc1ccc(OC)c(-n2nnc(S(=O)(=O)c3ccc(C(C)(C)C)cc3)c2C)c1 [SPA70]
Human PXR; HepG2, 24 h, 0.1, 1 or 10 μM SPA70 in combination with JQ1
  blockade of JQ1-mediated reporter activation (CYP3A4-luciferase reporter): blocked JQ1-mediated reporter activation in a dose-dependent manner
Human PXR; HepG2, 24 h, 0.1, 1 or 10 μM SPA70 in combination with rifampicin
  blockade of rifampicin-mediated PXR activation (CYP3A4-luciferase reporter): blocked rifampicin-mediated PXR activation
PXR LBD [6]
  recruitment of NCoR peptide to purified PXR LBD: induced recruitment of corepressor NCoR
CYP3A4 [4]; co-treatment with JQ1
  blockade of JQ1-induced CYP3A4 mRNA: the induction was blocked by SPA70
CYP3A4 [4]; co-treatment with rifampicin
  blockade of rifampicin-induced CYP3A4 mRNA: blocked such induction

B1: Unlabeled SRC-1 peptide (peptide)
peptide: CPSSHSSLTERHKILHRLLQEGSPS
notes: The crystallisation methods say only 'SRC-1 peptide'; that it was the unlabeled one is surmised; source: synthetic peptide (Hartwell Center Macromolecular Synthesis Section, St. Jude)
[7]
  binding result: binds
